Data taken from patent US9198925B2, “Pharmaceutical formulations containing an SGLT2 inhibitor” (AstraZeneca AB, priority 2007, dated 2015).
Like-named read-outs stand apart in the source and are kept apart here.

Key:
healthy subjects [1] = conditions: single ascending dose study, cited from earlier work
[2] = tested on: treatment naive type II diabetes mellitus patients; assay: 12-week study of weight loss and glucosuria in patients with type II diabetes; format: in vivo, human; conditions: for Mean reduction in BMI: absolute change
Method: Treatment naive type II diabetes mellitus patients, n=389, with inadequate blood glycemic control and low mean glucosuria at baseline were given once-daily oral treatments with dapagliflozin propylene glycol hydrate (2.5, 5, 10, 20, or 50 mgs), metformin XR® (750 mg titrated to 1500 mgs), or placebo over 12-weeks.

[3] = tested on: diet-induced obese (DIO) rats
Excerpt: Obesity was induced in male Sprague-Dawley rats (mean baseline weight=220 g) via ad libitum access to 2 diets: normal diet (Harlan Teklad rat chow; 3.5 kcal/gm, 5% vegetable fat) and high-sucrose/high-fat diet (Research Diets D12327; 4.6 kcal/gm, 40% sucrose and 40% vegetable fat). Rats under these conditions typically consume approximately 30 g/day of the high-sucrose/high-fat chow and 2 g/day of the normal Harlan Teklad rat chow.
DIO rats were sorted into treatment groups based on body weight, total kilocalories consumed, and body composition (via echo MRI). […] Body weight and the weight of both diets were determined daily. Respiratory quotient data were obtained on days 2 and 15 of the study, echo MRI was obtained on day 22, and blood was collected for a fasting clinical chemistry tests on day 27.
Percent weight changes were calculated as daily weight—day 0 weight×100.

[4] = tested on: diet-induced obese (DIO) rats; conditions: oral 1, 5 or 10 mg/kg, urine volume x glucose concentration
Method: Obesity was induced in male Sprague-Dawley rats (mean baseline weight=220 g) via ad libitum access to 2 diets: normal diet (Harlan Teklad rat chow; 3.5 kcal/gm, 5% vegetable fat) and high-sucrose/high-fat diet (Research Diets D12327; 4.6 kcal/gm, 40% sucrose and 40% vegetable fat).
Urine volume and glucose concentration were used to determine total urine glucose loss over 24 hours post dose.
Total glucose lost was calculated as volume of urine x glucose concentration.

[5] = tested on: subjects with type 2 diabetes; conditions: 14-day multiple dose
Method: (§1) Patients with type 2 diabetes were treated with placebo, 5 mg dapagliflozin propylene glycol hydrate, 25 mg dapagliflozin propylene glycol hydrate, or 100 mg dapagliflozin propylene glycol hydrate.

healthy subjects [6] = conditions: single ascending dose study
Method: as §1

[7] = metformin XR 750 mg titrated to 1500 mgs, 12 weeks, n = 56
[8] = 2.5 mgs once daily, 12 weeks, n = 59
[9] = 5 mgs once daily, 12 weeks, n = 58
[10] = 10 mgs once daily, 12 weeks, n = 47
[11] = 20 mgs once daily, 12 weeks, n = 59
[12] = 50 mgs once daily, 12 weeks, n = 56

For `CCOC(=O)OC[C@H]1O[C@@H](Oc2ccccc2Cc2ccc(OC)cc2)[C@H](O)[C@@H](O)[C@@H]1O` [GSK 869,682], the “amount of glucose excretion/day” value (healthy subjects [1]; 50 mg) is given as “approximately 5 g”, the “amount of glucose excretion/day” value (healthy subjects [1]; 100 mg) is given as roughly 6 g and the “amount of glucose excretion/day” value (healthy subjects [1]; 200 mg) is given as roughly 12 g. For the same compound, the “amount of glucose excretion/day” value (healthy subjects [1]; 500 mg) was roughly 16 g.
In the case of `CN(C)C(=N)N=C(N)N` [Metformin, metformin, reference compound], the “Mean reduction in BMI” value [2, 7] is reported as −0.5, the “Mean reduction in weight (%)” value [2, 7] is reported as −1.7% and the “mean glucosuria at week 12” value ([2]; type II diabetes patients, metformin XR 750 mg titrated to 1500 mgs, week 12) is reported as 5.6 grams/day.
In the case of `CCOc1ccc(Cc2cc([C@@H]3O[C@H](CO)[C@@H](O)[C@H](O)[C@H]3O)ccc2Cl)cc1.C[C@H](O)CO.O` [dapagliflozin propylene glycol hydrate], the “Mean reduction in weight (%)” value [2, 8] is reported as −2.7%, the “Mean reduction in weight (%)” value [2, 9] is reported as −2.5% and the “Mean reduction in weight (%)” value [2, 10] is reported as −2.7%. The “Mean reduction in weight (%)” value [2, 11] was −3.4%, the “Mean reduction in weight (%)” value [2, 12] was −3.4% and the “Mean reduction in BMI” value [2, 8] was −0.9. The “Mean reduction in BMI” value [2, 9] was −0.8, the “Mean reduction in BMI” value [2, 10] was −0.8 and the “Mean reduction in BMI” value [2, 11] was −1.0. For the same compound, the “Mean reduction in BMI” value [2, 12] was −1.1, the “proportion of patients who achieved a 5% weight reduction, versus placebo” value ([2]; each dose group (2.5, 5, 10, 20, 50 mgs), 12 weeks) was “higher proportion” and the “body weight loss versus vehicle” value ([3]; oral 0.5, 1 or 5 mpk, administered daily over 25 days, p<0.05 versus vehicle) was “significant weight loss”. For the same compound, the “body weight loss when compound-induced overeating was prevented (pair fed to vehicle group)” value ([3]; pair fed subgroup, compared with ad libitum treated rats) was “the weight loss was greater”, the “total amount of glucose lost in urine over 24 hours post dose” value [4] was “significantly increased with increasing doses” and the “24-hour urine glucose excretion compared to placebo” value ([5]; 5 mg) was “significantly higher”. For the same compound, the “24-hour urine glucose excretion compared to placebo” value ([5]; 25 mg) was “significantly higher”, the “24-hour urine glucose excretion compared to placebo” value ([5]; 100 mg) was “significantly higher” and the “amount of glucose excretion/day” value (healthy subjects [6]; 5 mg) was “approximately 30 g”. The “amount of glucose excretion/day” value (healthy subjects [6]; 20 mg) was roughly 55 g, the “amount of glucose excretion/day” value (healthy subjects [6]; 50 mg) was roughly 60 g and the “amount of glucose excretion/day” value (healthy subjects [6]; 100 mg) was roughly 70 g.
